Assay results as given in ChEMBL document CHEMBL2413072, “Synthesis and in vitro anticancer studies of novel C-2 arylidene congeners of lantadenes” (2013).

Columns and labels:
Assay type in all cases: functional
MDA-MB-231 = experiment: Growth inhibition of human MDA-MB-231 cells assessed as cell growth at 10 uM by sulforhodamine B assay; conditions: read-out: Activity
SNB-19 = experiment: Growth inhibition of human SNB19 cells assessed as cell growth at 10 uM by sulforhodamine B assay; conditions: read-out: Activity
TK-10 = experiment: Growth inhibition of human TK10 cells assessed as growth inhibition at 10 uM by sulforhodamine B assay; conditions: read-out: GI
NCI-H322M = experiment: Growth inhibition of human NCI-H322M cells assessed as growth inhibition at 10 uM by sulforhodamine B assay; conditions: read-out: GI
HOP-92 [1] = experiment: Growth inhibition of human HOP92 cells assessed as growth inhibition at 10 uM by sulforhodamine B assay; conditions: read-out: GI
SW-620 [2] = experiment: Growth inhibition of human SW620 cells assessed as cell growth at 10 uM by sulforhodamine B assay; conditions: read-out: Activity
CAKI-1 = experiment: Growth inhibition of human CAKI-1 cells assessed as growth inhibition at 10 uM by sulforhodamine B assay; conditions: read-out: GI
IGROV-1 [3] = experiment: Growth inhibition of human IGROV1 cells assessed as growth inhibition at 10 uM by sulforhodamine B assay; conditions: read-out: GI
Malme-3M = experiment: Growth inhibition of human MALME-3M cells assessed as cell growth at 10 uM by sulforhodamine B assay; conditions: read-out: Activity
HL-60(TB) = experiment: Growth inhibition of human HL-60(TB) cells assessed as cell growth at 10 uM by sulforhodamine B assay; conditions: read-out: Activity
OVCAR-5 = experiment: Growth inhibition of human OVCAR5 cells assessed as cell growth at 10 uM by sulforhodamine B assay; conditions: read-out: Activity
UACC-257 = experiment: Growth inhibition of human UACC257 cells assessed as growth inhibition at 10 uM by sulforhodamine B assay; conditions: read-out: GI
A498 = experiment: Growth inhibition of human A498 cells assessed as growth inhibition at 10 uM by sulforhodamine B assay; conditions: read-out: GI
MDA-MB-435 [4] = experiment: Growth inhibition of human MDA-MB-435 cells assessed as cell growth at 10 uM by sulforhodamine B assay; conditions: read-out: Activity
SK-MEL-28 [5] = experiment: Growth inhibition of human SK-MEL-28 cells assessed as growth inhibition at 10 uM by sulforhodamine B assay; conditions: read-out: GI
SK-OV-3 [6] = experiment: Growth inhibition of human SKOV3 cells assessed as growth inhibition at 10 uM by sulforhodamine B assay; conditions: read-out: GI
[7] = Growth inhibition of human EKVX cells assessed as growth inhibition at 10 uM by sulforhodamine B assay; conditions: read-out: GI
SK-MEL-5 = experiment: Growth inhibition of human SK-MEL-5 cells assessed as cell growth at 10 uM by sulforhodamine B assay; conditions: read-out: Activity
UO-31 = experiment: Growth inhibition of human UO31 cells assessed as growth inhibition at 10 uM by sulforhodamine B assay; conditions: read-out: GI
SN12C = experiment: Growth inhibition of human SN12C cells assessed as growth inhibition at 10 uM by sulforhodamine B assay; conditions: read-out: GI
SW-620 [8] = experiment: Growth inhibition of human SW620 cells assessed as growth inhibition at 10 uM by sulforhodamine B assay; conditions: read-out: GI
KM12 [9] = experiment: Growth inhibition of human KM12 cells assessed as cell growth at 10 uM by sulforhodamine B assay; conditions: read-out: Activity
U-251 = experiment: Growth inhibition of human U251 cells assessed as cell growth at 10 uM by sulforhodamine B assay; conditions: read-out: Activity
MCF7 = experiment: Growth inhibition of human MCF7 cells assessed as growth inhibition at 10 uM by sulforhodamine B assay; conditions: read-out: GI
NCI-H226 [10] = experiment: Growth inhibition of human NCI-H226 cells assessed as cell growth at 10 uM by sulforhodamine B assay; conditions: read-out: Activity
MDA-MB-435 [11] = experiment: Growth inhibition of human MDA-MB-435 cells assessed as growth inhibition at 10 uM by sulforhodamine B assay; conditions: read-out: GI
SK-OV-3 [12] = experiment: Growth inhibition of human SKOV3 cells assessed as cell growth at 10 uM by sulforhodamine B assay; conditions: read-out: Activity
NCI-H460 = experiment: Growth inhibition of human NCI-H460 cells assessed as growth inhibition at 10 uM by sulforhodamine B assay; conditions: read-out: GI
SK-MEL-2 = experiment: Growth inhibition of human SK-MEL-2 cells assessed as cell growth at 10 uM by sulforhodamine B assay; conditions: read-out: Activity
BT-549 = experiment: Growth inhibition of human BT549 cells assessed as cell growth at 10 uM by sulforhodamine B assay; conditions: read-out: Activity
NCI-H226 [13] = experiment: Growth inhibition of human NCI-H226 cells assessed as growth inhibition at 10 uM by sulforhodamine B assay; conditions: read-out: GI
KM12 [14] = experiment: Growth inhibition of human KM12 cells assessed as growth inhibition at 10 uM by sulforhodamine B assay; conditions: read-out: GI
DU-145 = experiment: Growth inhibition of human DU145 cells assessed as growth inhibition at 10 uM by sulforhodamine B assay; conditions: read-out: GI
COLO 205 = experiment: Growth inhibition of human COLO205 cells assessed as cell growth at 10 uM by sulforhodamine B assay; conditions: read-out: Activity
SF-539 = experiment: Growth inhibition of human SF539 cells assessed as growth inhibition at 10 uM by sulforhodamine B assay; conditions: read-out: GI
SF-268 = experiment: Growth inhibition of human SF268 cells assessed as growth inhibition at 10 uM by sulforhodamine B assay; conditions: read-out: GI
T47D = experiment: Growth inhibition of human T47D cells assessed as cell growth at 10 uM by sulforhodamine B assay; conditions: read-out: Activity
M14 [15] = experiment: Growth inhibition of human M14 cells assessed as cell growth at 10 uM by sulforhodamine B assay; conditions: read-out: Activity
HOP-62 = experiment: Growth inhibition of human HOP62 cells assessed as growth inhibition at 10 uM by sulforhodamine B assay; conditions: read-out: GI
HCT-15 = experiment: Growth inhibition of human HCT15 cells assessed as cell growth at 10 uM by sulforhodamine B assay; conditions: read-out: Activity
MOLT-4 [16] = experiment: Growth inhibition of human MOLT4 cells assessed as growth inhibition at 10 uM by sulforhodamine B assay; conditions: read-out: GI
MOLT-4 [17] = experiment: Growth inhibition of human MOLT4 cells assessed as cell growth at 10 uM by sulforhodamine B assay; conditions: read-out: Activity
RPMI-8226 = experiment: Growth inhibition of human RPMI8226 cells assessed as cell growth at 10 uM by sulforhodamine B assay; conditions: read-out: Activity
SK-MEL-28 [18] = experiment: Growth inhibition of human SK-MEL-28 cells assessed as cell growth at 10 uM by sulforhodamine B assay; conditions: read-out: Activity
IGROV-1 [19] = experiment: Growth inhibition of human IGROV1 cells assessed as cell growth at 10 uM by sulforhodamine B assay; conditions: read-out: Activity
M14 [20] = experiment: Growth inhibition of human M14 cells assessed as growth inhibition at 10 uM by sulforhodamine B assay; conditions: read-out: GI
ACHN = experiment: Growth inhibition of human ACHN cells assessed as cell growth at 10 uM by sulforhodamine B assay; conditions: read-out: Activity
HOP-92 [21] = experiment: Growth inhibition of human HOP92 cells assessed as cell growth at 10 uM by sulforhodamine B assay; conditions: read-out: Activity
786-0 = experiment: Growth inhibition of human 786-0 cells assessed as growth inhibition at 10 uM by sulforhodamine B assay; conditions: read-out: GI

## CC(C)=CC(=O)O[C@@H]1CC(C)(C)C[C@H]2C3=CC[C@@H]4[C@@]5(C)CCC(=O)C(C)(C)[C@@H]5CC[C@@]4(C)[C@]3(C)CC[C@@]12C(=O)O
MDA-MB-231
  growth at 10 µM: 71.5%
SNB-19
  growth at 10 µM: 57.3%
TK-10
  inhibition of growth at 10 µM: 21.9%
NCI-H322M
  inhibition of growth at 10 µM: 46%
HOP-92 [1]
  inhibition of growth at 10 µM: 71.6%
SW-620 [2]
  growth at 10 µM: 62.7%
CAKI-1
  inhibition of growth at 10 µM: 53.2%
IGROV-1 [3]
  inhibition of growth at 10 µM: 37.7%
Malme-3M
  growth at 10 µM: 85.4%
HL-60(TB)
  growth at 10 µM: 10.2%
OVCAR-5
  growth at 10 µM: 96.3%
UACC-257
  inhibition of growth at 10 µM: 26.1%
A498
  inhibition of growth at 10 µM: < 10%
MDA-MB-435 [4]
  growth at 10 µM: 89.6%
SK-MEL-28 [5]
  inhibition of growth at 10 µM: < 10%
SK-OV-3 [6]
  inhibition of growth at 10 µM: < 10%
[7]
  inhibition of growth at 10 µM: 58.8%
SK-MEL-5
  growth at 10 µM: 47.9%
UO-31
  inhibition of growth at 10 µM: 58%
SN12C
  inhibition of growth at 10 µM: 57.4%
SW-620 [8]
  inhibition of growth at 10 µM: 37.3%
KM12 [9]
  growth at 10 µM: 30.4%
U-251
  growth at 10 µM: 38.2%
MCF7
  inhibition of growth at 10 µM: 50.7%
NCI-H226 [10]
  growth at 10 µM: 78.2%
MDA-MB-435 [11]
  inhibition of growth at 10 µM: 10.4%
SK-OV-3 [12]
  growth at 10 µM: 95.4%
NCI-H460
  inhibition of growth at 10 µM: 52.9%
SK-MEL-2
  growth at 10 µM: 78.2%
BT-549
  growth at 10 µM: 69.6%
NCI-H226 [13]
  inhibition of growth at 10 µM: 21.8%
KM12 [14]
  inhibition of growth at 10 µM: 69.6%
DU-145
  inhibition of growth at 10 µM: 25.6%
COLO 205
  growth at 10 µM: 71%
SF-539
  inhibition of growth at 10 µM: 35%
SF-268
  inhibition of growth at 10 µM: 27%
T47D
  growth at 10 µM: 61.6%
M14 [15]
  growth at 10 µM: 80.3%
HOP-62
  inhibition of growth at 10 µM: 39.8%
HCT-15
  growth at 10 µM: 18.6%
MOLT-4 [16]
  inhibition of growth at 10 µM: 63.5%
MOLT-4 [17]
  growth at 10 µM: 36.5%
RPMI-8226
  growth at 10 µM: 19.6%
SK-MEL-28 [18]
  growth at 10 µM: 91.2%
IGROV-1 [19]
  growth at 10 µM: 62.3%
M14 [20]
  inhibition of growth at 10 µM: 19.7%
ACHN
  growth at 10 µM: 43.9%
HOP-92 [21]
  growth at 10 µM: 28.4%
786-0
  inhibition of growth at 10 µM: 55.9%

## CC1(C)C[C@@H](O)[C@]2(C(=O)O)CC[C@]3(C)C(=CC[C@@H]4[C@@]5(C)CCC(=O)C(C)(C)[C@@H]5CC[C@]43C)[C@@H]2C1
MDA-MB-231
  growth at 10 µM: 91.3%
SNB-19
  growth at 10 µM: 94.2%
TK-10
  inhibition of growth at 10 µM: < 10%
NCI-H322M
  inhibition of growth at 10 µM: < 10%
HOP-92 [1]
  inhibition of growth at 10 µM: 24.6%
SW-620 [2]
  growth at 10 µM: 104%
CAKI-1
  inhibition of growth at 10 µM: 15.2%
IGROV-1 [3]
  inhibition of growth at 10 µM: < 10%
Malme-3M
  growth at 10 µM: 87.1%
HL-60(TB)
  growth at 10 µM: 75.2%
OVCAR-5
  growth at 10 µM: 108%
UACC-257
  inhibition of growth at 10 µM: < 10%
A498
  inhibition of growth at 10 µM: < 10%
MDA-MB-435 [4]
  growth at 10 µM: 102%
SK-MEL-28 [5]
  inhibition of growth at 10 µM: < 10%
SK-OV-3 [6]
  inhibition of growth at 10 µM: < 10%
[7]
  inhibition of growth at 10 µM: < 10%
SK-MEL-5
  growth at 10 µM: 87.8%
UO-31
  inhibition of growth at 10 µM: 13.9%
SN12C
  inhibition of growth at 10 µM: 16.6%
SW-620 [8]
  inhibition of growth at 10 µM: < 10%
KM12 [9]
  growth at 10 µM: 87.7%
U-251
  growth at 10 µM: 89.2%
MCF7
  inhibition of growth at 10 µM: 18.6%
NCI-H226 [10]
  growth at 10 µM: 103%
MDA-MB-435 [11]
  inhibition of growth at 10 µM: < 10%
SK-OV-3 [12]
  growth at 10 µM: 102%
NCI-H460
  inhibition of growth at 10 µM: < 10%
SK-MEL-2
  growth at 10 µM: 96%
BT-549
  growth at 10 µM: 89.9%
NCI-H226 [13]
  inhibition of growth at 10 µM: < 10%
KM12 [14]
  inhibition of growth at 10 µM: 12.3%
DU-145
  inhibition of growth at 10 µM: < 10%
COLO 205
  growth at 10 µM: 101%
SF-539
  inhibition of growth at 10 µM: < 10%
SF-268
  inhibition of growth at 10 µM: < 10%
T47D
  growth at 10 µM: 80.8%
M14 [15]
  growth at 10 µM: 93.4%
HOP-62
  inhibition of growth at 10 µM: 11.3%
HCT-15
  growth at 10 µM: 75.4%
MOLT-4 [16]
  inhibition of growth at 10 µM: 21.3%
MOLT-4 [17]
  growth at 10 µM: 78.7%
RPMI-8226
  growth at 10 µM: 70.2%
SK-MEL-28 [18]
  growth at 10 µM: 98%
IGROV-1 [19]
  growth at 10 µM: 92.3%
M14 [20]
  inhibition of growth at 10 µM: < 10%
ACHN
  growth at 10 µM: 91.8%
HOP-92 [21]
  growth at 10 µM: 75.4%
786-0
  inhibition of growth at 10 µM: 13.8%
